Structures can show the parent of a compound that is named as a salt.
Test system: LPS-induced TNF-α release in peripheral blood mononuclear cells (PBMCs)
Experiment: In vitro determination of PDE4 inhibitory activity in the PBMCs assay (LPS-induced TNF-α release)
Format: cell-based
Settings: PBMC; human PBMCs, LPS 3 ng/ml, 18 hours; read-out: PDE4 inhibition (IC50, 50% inhibition of LPS-induced TNF-α release)
Protocol: The assay, which is based on the known inhibitory activity exerted by PDE4 inhibitors on the lipopolyshaccarides (LPS)-induced tumour necrosis factor-alpha (TNF-α release in peripheral blood mononuclear cells (PBMCs), was performed according to a method previously described (Hatzelmann A et al., J. Pharmacol. Exp. Ther., 2001; 297:267-279; and Draheim R et al., J. Pharmacol. Exp. Ther., 2004; 308:555-563, both of which are incorporated herein by reference in their entireties. Cryopreserved human PBMCs, (100 μl/well) were incubated in 96-well plates (10^5 cells/well), for 30 minutes, in the presence or absence (50 microl) of the test compounds whose concentrations ranged from 10^−12 M to 10^−6 M or from 10^−13 M to 10^−7 M. Subsequently, LPS (3 ng/ml) was added. After 18 hours of incubation at 37° C. in a humidified incubator under an atmosphere of 95% air and 5% CO2, culture medium was collected and TNF-α measured by ELISA.
The results of the tested compounds, representatives of the invention, expressed as mean±95% confidence limits of the molar concentration of the test compound producing 50% inhibition of LPS-induced TNF-α release (IC50) are shown in the following Table: […]

Row | Compound | IC50
1 | O=C(CN1C(=O)C(=O)c2cc([N+](=O)[O-])ccc21)O[C@@H](Cc1c(Cl)c[n+]([O-])cc1Cl)c1ccc(OC(F)F)c(OCC2CC2)c1 [Compound 26] | > 10 nM
2 | CS(=O)(=O)N(CCN1CCOCC1)c1ccc2c(c1)C(=O)C(=O)N2CC(=O)O[C@@H](Cc1c(Cl)c[n+]([O-])cc1Cl)c1ccc(OC(F)F)c(OCC2CC2)c1 [Compound 240, (S)-3,5-dichloro-4-(2-(3-(cyclopropylmethoxy)-4-(difluoromethoxy)phenyl)-2-(2-(5-(N-(2-morpholinoethyl)methylsulfonamido)-2,3-dioxoindolin-1-yl)acetoxy)ethyl)pyridine 1-oxide] | < 1 nM
3 | CS(=O)(=O)N(CCN1CCOCC1)c1cccc2c1C(=O)N(CC(=O)O[C@@H](Cc1c(Cl)c[n+]([O-])cc1Cl)c1ccc(OC(F)F)c(OCC3CC3)c1)C2=O [Compound 176, (S)-3,5-dichloro-4-(2-(3-(cyclopropylmethoxy)-4-(difluoromethoxy)phenyl)-2-(2-(4-(N-(2-morpholinoethyl)methylsulfonamido)-1,3-dioxoisoindolin-2-yl)acetoxy)ethyl)pyridine 1-oxide 2,2,2-trifluoroacetic acid salt] | 1 to 10 nM
4 | O=C(Cn1ccc2ccccc21)O[C@@H](Cc1c(Cl)c[n+]([O-])cc1Cl)c1ccc(OC(F)F)c(OCC2CC2)c1 [Compound 14, (S)-4-(2-(2-(1H-indol-1-yl)acetoxy)-2-(3-(cyclopropylmethoxy)-4-(difluoromethoxy)phenyl)ethyl)-3,5-dichloropyridine 1-oxide] | < 1 nM
5 | CS(=O)(=O)N(Cc1cccnc1)c1ccc2c(c1)C(=O)N(CC(=O)O[C@@H](Cc1c(Cl)c[n+]([O-])cc1Cl)c1ccc(OC(F)F)c(OCC3CC3)c1)C2=O [Compound 186] | < 1 nM
6 | COc1cccc2c1C(=O)N(CC(=O)O[C@@H](Cc1c(Cl)c[n+]([O-])cc1Cl)c1ccc(OC(F)F)c(OCC3CC3)c1)C2=O [Compound 68, (S)-3,5-dichloro-4-(2-(3-(cyclopropylmethoxy)-4-(difluoromethoxy)phenyl)-2-(2-(4-methoxy-1,3-dioxoisoindolin-2-yl)acetoxy)-ethyl)pyridine 1-oxide] | < 1 nM
7 | O=C(Cn1ccc2cccnc21)O[C@@H](Cc1c(Cl)c[n+]([O-])cc1Cl)c1ccc(OC(F)F)c(OCC2CC2)c1 [Compound 60] | 1 to 10 nM
8 | COc1ccc2c(ccn2CC(=O)O[C@@H](Cc2c(Cl)c[n+]([O-])cc2Cl)c2ccc(OC(F)F)c(OCC3CC3)c2)c1 [Compound 45, (S)-3,5-dichloro-4-(2-(3-(cyclopropylmethoxy)-4-(difluoromethoxy)phenyl)-2-(2-(5-methoxy-1H-indol-1-yl)acetoxy)ethyl)pyridine 1-oxide] | < 1 nM
9 | O=C(CN1C(=O)C(=O)c2ccccc21)O[C@@H](Cc1c(Cl)c[n+]([O-])cc1Cl)c1ccc(OC(F)F)c(OCC2CC2)c1 [Compound 25] | < 1 nM
10 | O=C(CN1C(=O)C(=O)c2ccc(N3CCOCC3)cc21)O[C@@H](Cc1c(Cl)c[n+]([O-])cc1Cl)c1ccc(OC(F)F)c(OCC2CC2)c1 [Compound 142, (S)-3,5-dichloro-4-(2-(3-(cyclopropylmethoxy)-4-(difluoromethoxy)phenyl)-2-(2-(6-morpholino-2,3-dioxoindolin-1-yl)acetoxy)ethyl)pyridine 1-oxide] | 1 to 10 nM
11 | CS(=O)(=O)Nc1ccc2c(c1)C(=O)N(CC(=O)O[C@@H](Cc1c(Cl)c[n+]([O-])cc1Cl)c1ccc(OC(F)F)c(OCC3CC3)c1)C2 [Compound 10, (S)-3,5-dichloro-4-(2-(3-(cyclopropylmethoxy)-4-(difluoromethoxy)phenyl)-2-(2-(6-(methylsulfonamido)-1-oxoisoindolin-2-yl)acetoxy)ethyl)pyridine 1-oxide] | 1 to 10 nM
12 | O=C(CN1C(=O)c2ccccc2C1=O)O[C@@H](Cc1c(Cl)c[n+]([O-])cc1Cl)c1ccc(OC(F)F)c(OC2CCOC2)c1 (stereo partly drawn) [Compound 261, 3,5-dichloro-4-((2S)-2-(4-(difluoromethoxy)-3-(tetrahydrofuran-3-yloxy)phenyl)-2-(2-(1,3-dioxoisoindolin-2-yl)acetoxy)-ethyl)pyridine 1-oxide] | < 1 nM
13 | CC1(C)c2ccccc2S(=O)(=O)N1CC(=O)O[C@@H](Cc1c(Cl)c[n+]([O-])cc1Cl)c1ccc(OC(F)F)c(OCC2CC2)c1 [Compound 35, (S)-3,5-dichloro-4-(2-(3-(cyclopropylmethoxy)-4-(difluoromethoxy)phenyl)-2-(2-(3,3-dimethyl-1,1-dioxidobenzo[d]isothiazol-2(3H)-yl)acetoxy)ethyl)pyridine 1-oxide] | 1 to 10 nM
14 | CS(=O)(=O)N(Cc1ccccn1)c1ccc2c(c1)C(=O)N(CC(=O)O[C@@H](Cc1c(Cl)c[n+]([O-])cc1Cl)c1ccc(OC(F)F)c(OCC3CC3)c1)C2=O [Compound 190] | < 1 nM
15 | Nc1cccc2c1C(=O)N(CC(=O)O[C@@H](Cc1c(Cl)c[n+]([O-])cc1Cl)c1ccc(OC(F)F)c(OCC3CC3)c1)C2=O [Compound 12, (S)-4-(2-(2-(4-amino-1,3-dioxoisoindolin-2-yl)acetoxy)-2-(3-(cyclopropylmethoxy)-4-(difluoromethoxy)phenyl)ethyl)-3,5-dichloropyridine 1-oxide] | < 1 nM
16 | O=C(Cn1ccc2cnccc21)O[C@@H](Cc1c(Cl)c[n+]([O-])cc1Cl)c1ccc(OC(F)F)c(OCC2CC2)c1 [Compound 61] | 1 to 10 nM
17 | COc1ccc2c(c1)CC(=O)N2CC(=O)O[C@@H](Cc1c(Cl)c[n+]([O-])cc1Cl)c1ccc(OC(F)F)c(OCC2CC2)c1 [Compound 117, (S)-3,5-dichloro-4-(2-(3-(cyclopropylmethoxy)-4-(difluoromethoxy)phenyl)-2-(2-(5-methoxy-2-oxoindolin-1-yl)acetoxy)-ethyl)pyridine 1-oxide] | < 1 nM
18 | COc1cc2ccn(CC(=O)O[C@@H](Cc3c(Cl)c[n+]([O-])cc3Cl)c3ccc(OC(F)F)c(OCC4CC4)c3)c2cc1OC [Compound 54] | 1 to 10 nM
19 | COc1ccnc(CN(c2ccc3c(c2)C(=O)N(CC(=O)O[C@@H](Cc2c(Cl)c[n+]([O-])cc2Cl)c2ccc(OC(F)F)c(OCC4CC4)c2)C3=O)S(C)(=O)=O)c1 [Compound 194] | 1 to 10 nM
20 | O=C(Cn1c(=O)[nH]c2ccccc2c1=O)O[C@@H](Cc1c(Cl)c[n+]([O-])cc1Cl)c1ccc(OC(F)F)c(OCC2CC2)c1 [Compound 30] | < 1 nM
21 | CS(=O)(=O)Nc1ccc2c(c1)CC(=O)N2CC(=O)O[C@@H](Cc1c(Cl)c[n+]([O-])cc1Cl)c1ccc(OC(F)F)c(OCC2CC2)c1 [Compound 112, (S)-3,5-dichloro-4-(2-(3-(cyclopropylmethoxy)-4-(difluoromethoxy)phenyl)-2-(2-(5-(methylsulfonamido)-2-oxoindolin-1-yl)acetoxy)ethyl)pyridine 1-oxide] | < 1 nM
22 | O=C(Cn1c(=O)c2ccccc2c(=O)n1CCN1CCOCC1)O[C@@H](Cc1c(Cl)c[n+]([O-])cc1Cl)c1ccc(OC(F)F)c(OCC2CC2)c1 [Compound 40] | 1 to 10 nM
23 | CC(=O)N1CCN(CCN(c2ccc3c(c2)C(=O)N(CC(=O)O[C@@H](Cc2c(Cl)c[n+]([O-])cc2Cl)c2ccc(OC(F)F)c(OCC4CC4)c2)C3=O)S(C)(=O)=O)CC1 [Compound 214] | < 1 nM

Reference: patent publication US9024027B2, “Derivatives of 1-phenyl-2-pyridinyl alkyl alcohols as phosphodiesterase inhibitors” (Chiesi Farmaceutici S.p.A., priority 2011, dated 2015)
